Where two headings read alike, the source gives them in different places.
What was measured:
[1] = test system: male NMRI mice; conditions: mouse, in vivo
[2] = target: T1, κ receptor (Cavia porcellus, UniProt P41144); assay: biochemical; type: binding, guinea pig
T1 construct: sucrose solution (0.32 M) was added to five guinea pig brains and the mixture was homogenized; from tissue; host or cells: whole guinea pig brain membrane homogenate
T1 sequence (P41144 whole entry): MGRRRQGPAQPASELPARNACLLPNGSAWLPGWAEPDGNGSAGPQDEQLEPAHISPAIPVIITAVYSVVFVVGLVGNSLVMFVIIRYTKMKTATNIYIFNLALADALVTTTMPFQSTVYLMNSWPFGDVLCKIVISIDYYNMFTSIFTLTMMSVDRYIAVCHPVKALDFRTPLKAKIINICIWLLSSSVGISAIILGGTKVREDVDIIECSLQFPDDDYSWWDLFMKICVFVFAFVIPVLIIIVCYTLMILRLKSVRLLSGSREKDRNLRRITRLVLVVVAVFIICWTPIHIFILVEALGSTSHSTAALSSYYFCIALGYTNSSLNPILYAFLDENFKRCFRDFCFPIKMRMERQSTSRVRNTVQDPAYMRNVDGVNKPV

Compound | Ki [2] [nM] | Ki ([2]; read-out: κ: Ki ± SEM) [nM] | further results
2-(3,4-dichlorophenyl)-1-{(4aRS,8SR,8aSR)-8-[(3SR)-3-hydroxypyrrolidin-1-yl]perhydroquinoxalin-1-yl}ethan-1-one and 2-(3,4-dichlorophenyl)-1-{(4aRS,8SR,8aSR)-8-[(3RS)-3-hydroxypyrrolidin-1-yl]perhydroquinoxalin-1-yl}ethan-1-one [Example 2] | – | – | reduction in the pain in the models of the centrally mediated types of pain [1]: no significant reduction in the pain
COC(=O)CC(=O)N1CCN(C(=O)Cc2ccc(Cl)c(Cl)c2)[C@H]2[C@H]1CCC[C@@H]2N1CCCC1 (racemic) [Example 13, methyl 3-{(4aRS,8SR,8aRS)-1-[2-(3,4-dichlorophenyl)acetyl]-8-(pyrrolidin-1-yl)-perhydroquinoxalin-4-yl}-3-oxopropionate] | 11 ± 5.6 | – | –
CCCCN1CCN(C(=O)Cc2ccc(Cl)c(Cl)c2)[C@H]2[C@H]1CCC[C@@H]2N1CCCC1 (racemic) [Example 19, 1-[(4aRS,8SR,8aRS)-4-butyl-8-(pyrrolidin-1-yl)perhydroquinoxalin-1-yl]-2-(3,4-dichlorophenyl)-ethan-1-one] | 3.1 ± 1.8 | – | –
COc1ccc(CN2CCN(C(=O)Cc3ccc(Cl)c(Cl)c3)[C@H]3[C@H]2CCC[C@@H]3N2CCCC2)cc1 (racemic) [Example 20, 2-(3,4-dichlorophenyl)-1-[(4aRS,8SR,8aRS)-4-(4-methoxybenzyl)-8-(pyrrolidin-1-yl)-perhydroquinoxalin-1-yl]ethan-1-one] | 6.8 ± 2 | – | –
O=C(Cc1ccc(Cl)c(Cl)c1)N1CCN(Cc2ccccn2)[C@@H]2CCC[C@H](N3CCCC3)[C@H]21 (racemic) [Example 21, 2-(3,4-dichlorophenyl)-1-{(4aRS,8SR,8aRS)-4-[(pyridin-2-yl)methyl]-8-(pyrrolidin-1-yl)perhydroquinoxalin-1-yl}ethan-1-one] | 4.2 ± 2.6 | – | –
O=C(Cc1ccc(Cl)c(Cl)c1)N1CCN(Cc2cccnc2)[C@@H]2CCC[C@H](N3CCCC3)[C@H]21 (racemic) [Example 22, 2-(3,4-dichlorophenyl)-1-{(4aRS,8SR,8aRS)-4-[(pyridin-3-yl)methyl]-8-(pyrrolidin-1-yl)perhydroquinoxalin-1-yl}ethan-1-one] | 0.13 ± 0.02 | – | –
O=C(Cc1ccc(Cl)c(Cl)c1)N1CCN(Cc2ccccc2)C2CCCC(N3CCC(O)C3)C21 (stereo not drawn) [Example 5, 1-{(4aRS,8SR,8aSR)-4-benzyl-8-[(3SR)- and (3RS)-3-hydroxypyrrolidin-1-yl]perhydroquinoxalin-1-yl}-2-(3,4-dichlorophenyl)ethan-1-one] | – | 6.6 ± 1.4 | –
O=C(c1ccccc1)N1CCN(C(=O)Cc2ccc(Cl)c(Cl)c2)C2C(N3CCC(O)C3)CCCC21 (stereo not drawn) [Example 14, 1-{(4aRS,8SR,8aSR)-4-benzoyl-8-[(3SR)- and (3RS)-3-hydroxypyrrolidin-1-yl]-perhydroquinoxalin-1-yl}-2-(3,4-dichlorophenyl)ethan-1-one] | – | 22 ± 5.6 | –
COC(=O)N1CCN(C(=O)Cc2ccc(Cl)c(Cl)c2)C2C(N3CCC(O)C3)CCCC21 (stereo not drawn) [Example 15, methyl{(4aRS,8SR,8aRS)-1-[2-(3,4-dichlorophenyl)acetyl]-8-[(3SR)- and (3RS)-3-hydroxypyrrolidin-1-yl]-perhydroquinoxalin-4-yl}carboxylate] | – | 11 ± 2.8 | –
O=C(O)CC(=O)N1CCN(C(=O)Cc2ccc(Cl)c(Cl)c2)C2C(N3CCC(O)C3)CCCC21 (stereo not drawn) [Example 16, 3-{(4aRS,8SR,8aRS)-1-[2-(3,4-dichlorophenyl)acetyl]-8-[(3SR)- and (3RS)-3-hydroxypyrrolidin-1-yl]-perhydroquinoxalin-4-yl}-3-oxopropionic acid] | – | 482 ± 113 | –
COC(=O)CC(=O)N1CCN(C(=O)Cc2ccc(Cl)c(Cl)c2)C2C(N3CCC(O)C3)CCCC21 (stereo not drawn) [Example 17, methyl 3-{(4aRS,8SR,8aRS)-1-[2-(3,4-dichlorophenyl)acetyl]-8-[(3SR)- and (3RS)-3-hydroxypyrrolidin-1-yl]-perhydroquinoxalin-4-yl}-3-oxopropionate] | – | 18 ± 2.2 | –
O=C(Cc1ccc(Cl)c(Cl)c1)N1CCN(Cc2cccnc2)C2CCCC(N3CCC(O)C3)C21 (stereo not drawn) [Example 25, 2-(3,4-dichlorophenyl)-1-{(4aRS,8SR,8aSR)-4-[(pyridin-3-yl)methyl]-8-[(3SR)- and (3RS)-3-hydroxypyrrolidin-1-yl]perhydroquinoxalin-1-yl}ethan-1-one] | – | 3.8 ± 0.7 | –
